Here are results for 15 compounds from ChEMBL document CHEMBL5625187, “A facile and selective derivatization approach on kynurenine-NH2 in daptomycin, leading to the discovery of hexakynomycin to combat multidrug-resistant Gram-positive pathogens especially daptomycin-resistant bacteria” (Eur J Med Chem, 2023).

A word on the MIC: it is the smallest concentration in the dilution series that meets the test's criterion for growth inhibition.

Type in all cases: functional
Experiment [1] concerns Staphylococcus aureus. Briefly: Antibacterial activity against methicillin-susceptible Staphylococcus aureus Newman ATCC 25904 assessed as reduction in microbial growth incubated for 24 hrs by broth microdilution method.
The subject of experiment [2] is Enterococcus faecium. Briefly: Antibacterial activity against glycopeptide-resistant Enterococcus faecium Efm-HS-0649 assessed as reduction in microbial growth incubated for 24 hrs by broth microdilution method. Background: Dilution methods test growth across graded concentrations, often in twofold steps.
Experiment [3] relates to Staphylococcus aureus. Briefly: Antibacterial activity against vancomycin-intermediate resistant Staphylococcus aureus Mu 50 assessed as reduction in microbial growth incubated for 24 hrs by broth microdilution method.
The subject of experiment [4] is Enterococcus faecium. Briefly: Potency index, ratio of daptomycin MIC to test compound MIC for antibacterial activity against glycopeptide-resistant Enterococcus faecium Efm-HS-0649.
Experiment [5] concerns Staphylococcus aureus. Briefly: Antibacterial activity against methicillin-resistant Staphylococcus aureus USA300 assessed as reduction in microbial growth incubated for 24 hrs by broth microdilution method.
The test system of experiment [6] is Staphylococcus aureus. Briefly: Potency index, ratio of daptomycin MIC to test compound MIC for antibacterial activity against methicillin-susceptible Staphylococcus aureus Newman ATCC 25904.

Regarding `CCCCCCCCCC(=O)N[C@@H](Cc1c[nH]c2ccccc12)C(=O)N[C@H](CC(N)=O)C(=O)N[C@@H](CC(=O)O)C(=O)N[C@@H]1C(=O)NCC(=O)N[C@@H](CCCN)C(=O)N[C@@H](CC(=O)O)C(=O)N[C@H](C)C(=O)N[C@@H](CC(=O)O)C(=O)NCC(=O)N[C@H](CO)C(=O)N[C@@H]([C@H](C)CC(=O)O)C(=O)N[C@@H](CC(=O)c2ccccc2NCc2ccccc2)C(=O)O[C@@H]1C`, the MIC in experiment [1] was determined as 0.5 µg/mL; in experiment [2] it was 1 µg/mL; in experiment [3] it was 4 µg/mL; in experiment [5], 0.5 µg/mL. Besides, the Ratio in experiment [4] and in experiment [6] was 4 throughout.

Turning to `C#CC[S+](C)CCCNc1ccccc1C(=O)C[C@@H]1NC(=O)[C@H]([C@H](C)CC(=O)O)NC(=O)[C@@H](CO)NC(=O)CNC(=O)[C@H](CC(=O)O)NC(=O)[C@@H](C)NC(=O)[C@H](CC(=O)O)NC(=O)[C@H](CCCN)NC(=O)CNC(=O)[C@@H](NC(=O)[C@H](CC(=O)O)NC(=O)[C@@H](CC(N)=O)NC(=O)[C@H](Cc2c[nH]c3ccccc23)NC(=O)CCCCCCCCC)[C@@H](C)OC1=O` (some centres undefined), the MIC was 128 µg/mL in experiment [1], 128 µg/mL in experiment [2], greater than 128 µg/mL in experiment [3] and 128 µg/mL in experiment [5].

`CCCCCCCCCC(=O)N[C@@H](Cc1c[nH]c2ccccc12)C(=O)N[C@H](CC(N)=O)C(=O)N[C@@H](CC(=O)O)C(=O)N[C@@H]1C(=O)NCC(=O)N[C@@H](CCCN)C(=O)N[C@@H](CC(=O)O)C(=O)N[C@H](C)C(=O)N[C@@H](CC(=O)O)C(=O)NCC(=O)N[C@H](CO)C(=O)N[C@@H]([C@H](C)CC(=O)O)C(=O)N[C@@H](CC(=O)c2ccccc2NCCC)C(=O)O[C@@H]1C`: the minimum inhibitory concentration (MIC) in experiment [1] was 1 µg/mL; in experiment [2] it was 1 µg/mL; in experiment [3], 4 µg/mL; in experiment [5], 0.5 µg/mL. The Ratio in experiment [4] and in experiment [6] was 2 in each case.

Take `CCCCCCCCCC(=O)N[C@@H](Cc1c[nH]c2ccccc12)C(=O)N[C@H](CC(N)=O)C(=O)N[C@@H](CC(=O)O)C(=O)N[C@@H]1C(=O)NCC(=O)N[C@@H](CCCN)C(=O)N[C@@H](CC(=O)O)C(=O)N[C@H](C)C(=O)N[C@@H](CC(=O)O)C(=O)NCC(=O)N[C@H](CO)C(=O)N[C@@H]([C@H](C)CC(=O)O)C(=O)N[C@@H](CC(=O)c2ccccc2NCCCCCCC)C(=O)O[C@@H]1C` (single isomer, unassigned): the minimal inhibitory concentration (MIC) in experiment [1] came out at 0.5 µg/mL; in experiment [2], 0.25 µg/mL; in experiment [3], 2 µg/mL; in experiment [5], 0.25 µg/mL. Also, the Ratio in experiment [4] and in experiment [6] was 2 throughout.

`CCCCCCCCCC(=O)N[C@@H](Cc1c[nH]c2ccccc12)C(=O)N[C@H](CC(N)=O)C(=O)N[C@@H](CC(=O)O)C(=O)N[C@@H]1C(=O)NCC(=O)N[C@@H](CCCN)C(=O)N[C@@H](CC(=O)O)C(=O)N[C@H](C)C(=O)N[C@@H](CC(=O)O)C(=O)NCC(=O)N[C@H](CO)C(=O)N[C@@H]([C@H](C)CC(=O)O)C(=O)N[C@@H](CC(=O)c2ccccc2NCC(=O)O)C(=O)O[C@@H]1C`: the minimal inhibitory concentration (MIC) was 32 µg/mL in experiment [1], 128 µg/mL in experiment [2], 128 µg/mL in experiment [3] and 32 µg/mL in experiment [5].

As to `CCCCCCCCCC(=O)N[C@@H](Cc1c[nH]c2ccccc12)C(=O)N[C@H](CC(N)=O)C(=O)N[C@@H](CC(=O)O)C(=O)N[C@@H]1C(=O)NCC(=O)N[C@@H](CCCN)C(=O)N[C@@H](CC(=O)O)C(=O)N[C@H](C)C(=O)N[C@@H](CC(=O)O)C(=O)NCC(=O)N[C@H](CO)C(=O)N[C@@H]([C@H](C)CC(=O)O)C(=O)N[C@@H](CC(=O)c2ccccc2NCCC[S+](C)CC(O)CC)C(=O)O[C@@H]1C` (single isomer, unassigned), the minimal inhibitory concentration (MIC) in experiment [1], in experiment [2], in experiment [3] and in experiment [5] was greater than 128 µg/mL each time.

As for `CCCCCCCCCNc1ccccc1C(=O)C[C@@H]1NC(=O)[C@H]([C@H](C)CC(=O)O)NC(=O)[C@@H](CO)NC(=O)CNC(=O)[C@H](CC(=O)O)NC(=O)[C@@H](C)NC(=O)[C@H](CC(=O)O)NC(=O)[C@H](CCCN)NC(=O)CNC(=O)[C@@H](NC(=O)[C@H](CC(=O)O)NC(=O)[C@@H](CC(N)=O)NC(=O)[C@H](Cc2c[nH]c3ccccc23)NC(=O)CCCCCCCCC)[C@@H](C)OC1=O` (single isomer, unassigned), the MIC was 2 µg/mL in experiment [1], 1 µg/mL in experiment [2], 4 µg/mL in experiment [3] and 1 µg/mL in experiment [5]. The Ratio in experiment [4] and in experiment [6] was 2 in each case.

Consider `CCCCCCCCCCNc1ccccc1C(=O)C[C@@H]1NC(=O)[C@H]([C@H](C)CC(=O)O)NC(=O)[C@@H](CO)NC(=O)CNC(=O)[C@H](CC(=O)O)NC(=O)[C@@H](C)NC(=O)[C@H](CC(=O)O)NC(=O)[C@H](CCCN)NC(=O)CNC(=O)[C@@H](NC(=O)[C@H](CC(=O)O)NC(=O)[C@@H](CC(N)=O)NC(=O)[C@H](Cc2c[nH]c3ccccc23)NC(=O)CCCCCCCCC)[C@@H](C)OC1=O` (single isomer, unassigned), for which the MIC was found to be 2 µg/mL in experiment [1], 2 µg/mL in experiment [2], 4 µg/mL in experiment [3] and 2 µg/mL in experiment [5]. The Ratio in experiment [4] and in experiment [6] was 2 each time.

On to `CCCCCCCCCC(=O)N[C@@H](Cc1c[nH]c2ccccc12)C(=O)N[C@H](CC(N)=O)C(=O)N[C@@H](CC(=O)O)C(=O)N[C@@H]1C(=O)NCC(=O)N[C@@H](CCCN)C(=O)N[C@@H](CC(=O)O)C(=O)N[C@H](C)C(=O)N[C@@H](CC(=O)O)C(=O)NCC(=O)N[C@H](CO)C(=O)N[C@@H]([C@H](C)CC(=O)O)C(=O)N[C@@H](CC(=O)c2ccccc2NCCCCCCCC)C(=O)O[C@@H]1C` (single isomer, unassigned), for which the MIC in experiment [1] was 1 µg/mL; in experiment [2], 0.5 µg/mL; in experiment [3] it was 4 µg/mL; in experiment [5] it was 1 µg/mL. Further, the Ratio in experiment [4] and in experiment [6] was 2 each time.

For the compound `CCCCCCCCCC(=O)N[C@@H](Cc1c[nH]c2ccccc12)C(=O)N[C@H](CC(N)=O)C(=O)N[C@@H](CC(=O)O)C(=O)N[C@@H]1C(=O)NCC(=O)N[C@@H](CCCN)C(=O)N[C@@H](CC(=O)O)C(=O)N[C@H](C)C(=O)N[C@@H](CC(=O)O)C(=O)NCC(=O)N[C@H](CO)C(=O)N[C@@H]([C@H](C)CC(=O)O)C(=O)N[C@@H](CC(=O)c2ccccc2NC)C(=O)O[C@@H]1C`, the MIC in experiment [1] is 1 µg/mL; in experiment [2], 4 µg/mL; in experiment [3], 4 µg/mL; in experiment [5], 1 µg/mL. The Ratio in experiment [4] and in experiment [6] was 2 each time.

On to `CCCCCCCCCC(=O)N[C@@H](Cc1c[nH]c2ccccc12)C(=O)N[C@H](CC(N)=O)C(=O)N[C@@H](CC(=O)O)C(=O)N[C@@H]1C(=O)NCC(=O)N[C@@H](CCCN)C(=O)N[C@@H](CC(=O)O)C(=O)N[C@H](C)C(=O)N[C@@H](CC(=O)O)C(=O)NCC(=O)N[C@H](CO)C(=O)N[C@@H]([C@H](C)CC(=O)O)C(=O)N[C@@H](CC(=O)c2ccccc2NCC2CCCCC2)C(=O)O[C@@H]1C` (single isomer, unassigned), for which the MIC in experiment [1] is 1 µg/mL; in experiment [2] it was 1 µg/mL; in experiment [3], 4 µg/mL; in experiment [5], 0.5 µg/mL.

On to `CCCCCCCCCC(=O)N[C@@H](Cc1c[nH]c2ccccc12)C(=O)N[C@H](CC(N)=O)C(=O)N[C@@H](CC(=O)O)C(=O)N[C@@H]1C(=O)NCC(=O)N[C@@H](CCCN)C(=O)N[C@@H](CC(=O)O)C(=O)N[C@H](C)C(=O)N[C@@H](CC(=O)O)C(=O)NCC(=O)N[C@H](CO)C(=O)N[C@@H]([C@H](C)CC(=O)O)C(=O)N[C@@H](CC(=O)c2ccccc2NCCCSC)C(=O)O[C@@H]1C` (single isomer, unassigned), for which the MIC is 1 µg/mL in experiment [1], 1 µg/mL in experiment [2], 4 µg/mL in experiment [3] and 0.5 µg/mL in experiment [5].

On to `CCCCCCCCCC(=O)N[C@@H](Cc1c[nH]c2ccccc12)C(=O)N[C@H](CC(N)=O)C(=O)N[C@@H](CC(=O)O)C(=O)N[C@@H]1C(=O)NCC(=O)N[C@@H](CCCN)C(=O)N[C@@H](CC(=O)O)C(=O)N[C@H](C)C(=O)N[C@@H](CC(=O)O)C(=O)NCC(=O)N[C@H](CO)C(=O)N[C@@H]([C@H](C)CC(=O)O)C(=O)N[C@@H](CC(=O)c2ccccc2NCCC2C(=O)C=CC2=O)C(=O)O[C@@H]1C` (single isomer, unassigned), for which the MIC in experiment [1] is 128 µg/mL; in experiment [2], 128 µg/mL; in experiment [3], greater than 128 µg/mL; in experiment [5], 128 µg/mL.

For the compound `CCCCCCCCCC(=O)N[C@@H](Cc1c[nH]c2ccccc12)C(=O)N[C@H](CC(N)=O)C(=O)N[C@@H](CC(=O)O)C(=O)N[C@@H]1C(=O)NCC(=O)N[C@@H](CCCN)C(=O)N[C@@H](CC(=O)O)C(=O)N[C@H](C)C(=O)N[C@@H](CC(=O)O)C(=O)NCC(=O)N[C@H](CO)C(=O)N[C@@H]([C@H](C)CC(=O)O)C(=O)N[C@@H](CC(=O)c2ccccc2NCCC[S+](C)[O-])C(=O)O[C@@H]1C` (some centres undefined), the minimal inhibitory concentration (MIC) in experiment [1] was 128 µg/mL; in experiment [2], 128 µg/mL; in experiment [3], greater than 128 µg/mL; in experiment [5] it was 128 µg/mL.

Turning to `CCCCCCCCCC(=O)N[C@@H](Cc1c[nH]c2ccccc12)C(=O)N[C@H](CC(N)=O)C(=O)N[C@@H](CC(=O)O)C(=O)N[C@@H]1C(=O)NCC(=O)N[C@@H](CCCN)C(=O)N[C@@H](CC(=O)O)C(=O)N[C@H](C)C(=O)N[C@@H](CC(=O)O)C(=O)NCC(=O)N[C@H](CO)C(=O)N[C@@H]([C@H](C)CC(=O)O)C(=O)N[C@@H](CC(=O)c2ccccc2NCc2ccc3c(c2)CCO3)C(=O)O[C@@H]1C`, the minimal inhibitory concentration (MIC) is 1 µg/mL in experiment [1], 2 µg/mL in experiment [2], 4 µg/mL in experiment [3] and 1 µg/mL in experiment [5].
